Assay results from patent US12655116B2, “Substituted isophthalic acid diamides” (Bayer Aktiengesellschaft, priority 2020, dated 2026).

Legend:
ABUTH [1] = test: Pre-emergence herbicidal action against ABUTH; assay type: in vivo, Abutilon theophrasti; conditions: for Pre-emergence action against ABUTH (herbicidal activity): 80 g/ha, scored visually after 3 weeks vs untreated controls (100% = plants have died, 0% = like control plants); for Pre-emergence action against ABUTH (herbicidal activity in percent): dosage 20 g/ha, scored visually after 3 weeks vs untreated controls, 100% = plants have died, 0% = like control plants
In short: (§1)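 Sandy loam pots, seeds covered with soil, then surface-treated with WP or EC formulations at 600–800 l/ha water plus 0.2% wetting agent. Greenhouse, 3 weeks. Percent damage vs untreated controls.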

ALOMY [2] = test: Pre-emergence herbicidal action against ALOMY; assay type: in vivo, Alopecurus myosuroides; conditions: 80 g/ha, pre-emergence, scored visually after 3 weeks vs untreated controls (100% = plants have died, 0% = like control plants)
In short: as §1

AMARE [3] = test: Pre-emergence herbicidal action against AMARE; assay type: in vivo, Amaranthus retroflexus
In short: as §1

AVEFA [4] = test: Pre-emergence herbicidal action against AVEFA; assay type: in vivo, Avena fatua; conditions: for Pre-emergence action against AVEFA in %: 80 g/ha
In short: as §1

ECHCG [5] = test: Pre-emergence herbicidal action against ECHCG; assay type: in vivo, Echinochloa crus-galli
In short: as §1

MATIN [6] = test: Pre-emergence herbicidal action against MATIN; assay type: in vivo, Matricaria inodora
In short: as §1

PHBPU [7] = test: Pre-emergence herbicidal action against PHBPU; assay type: in vivo, Pharbitis purpurea
In short: as §1

POLCO = test: Pre-emergence herbicidal action against POLCO; assay type: in vivo, Polygonum convolvulus; conditions: dosage 80 g/ha
In short: as §1

SETVI [8] = test: Pre-emergence herbicidal action against SETVI; assay type: in vivo, Setaria viridis
In short: as §1

VERPE [9] = test: Pre-emergence herbicidal action against VERPE; assay type: in vivo, Veronica persica; conditions: dosage 80 g/ha
In short: as §1

VIOTR [10] = test: Pre-emergence herbicidal action against VIOTR; assay type: in vivo, Viola tricolor
In short: as §1

DIGSA [11] = test: Pre-emergence herbicidal action against DIGSA; assay type: in vivo, Digitaria sanguinalis
In short: as §1

ABUTH [12] = test: Post-emergence herbicidal action against ABUTH; assay type: in vivo, Abutilon theophrasti; conditions: visual assessment about 3 weeks after treatment vs untreated controls
In short: (§2)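 Herbicidal action is a visual percentage rating (0% = as untreated control, 100% = plants dead) made roughly 3 weeks after treatment. Plants were grown in sandy loam in the greenhouse and treated at the one-leaf stage, 2 to 3 weeks post-sowing. Treatment was a foliar spray of wettable-powder or emulsion-concentrate formulations at 600 to 800 l/ha water plus 0.2% wetting agent.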

ALOMY [13] = test: Post-emergence herbicidal action against ALOMY; assay type: in vivo, Alopecurus myosuroides; conditions: visual assessment about 3 weeks after treatment vs untreated controls
In short: as §2

AMARE [14] = test: Post-emergence herbicidal action against AMARE; assay type: in vivo, Amaranthus retroflexus; conditions: 20 g/ha, visual assessment about 3 weeks after treatment, 100% = plants have died, 0% = like control plants
In short: as §2

AVEFA [15] = test: Post-emergence herbicidal action against AVEFA; assay type: in vivo, Avena fatua; conditions: 20 g/ha, visual assessment about 3 weeks after treatment, 100% = plants have died, 0% = like control plants
In short: as §2

ECHCG [16] = test: Post-emergence herbicidal action against ECHCG; assay type: in vivo, Echinochloa crus-galli
In short: as §2

MATIN [17] = test: Post-emergence herbicidal action against MATIN; assay type: in vivo, Matricaria inodora
In short: as §2

PHBPU [18] = test: Post-emergence herbicidal action against PHBPU; assay type: in vivo, Pharbitis purpurea
In short: as §2

SETVI [19] = test: Post-emergence herbicidal action against SETVI; assay type: in vivo, Setaria viridis
In short: as §2

VERPE [20] = test: Post-emergence herbicidal action against VERPE; assay type: in vivo, Veronica persica; conditions: 20 g/ha
In short: as §2

VIOTR [21] = test: Post-emergence herbicidal action against VIOTR; assay type: in vivo, Viola tricolor
In short: as §2

DIGSA [22] = test: Post-emergence herbicidal action against DIGSA; assay type: in vivo, Digitaria sanguinalis; conditions: for Post-emergence action against DIGSA in %: 5 g/ha; for Post-emergence action against DIGSA: 20 g/ha
In short: as §2

[23] = 20 g/ha, scored visually after 3 weeks vs untreated controls, 100% = plants have died, 0% = like control plants
[24] = 80 g/ha, scored visually after 3 weeks vs untreated controls (100% = plants have died, 0% = like control plants)

SMILES: CCNC(=O)c1c(C(F)(F)F)ccc(C(=O)Nc2nnnn2CC)c1OC [Example 2-57]
- Pre-emergence action against ABUTH (herbicidal activity) (ABUTH [1]): 100%
- Pre-emergence action against ABUTH (herbicidal activity in percent) (ABUTH [1]): 100%
- Pre-emergence action against ALOMY (herbicidal activity) (ALOMY [2]): 90%
- Pre-emergence action against AMARE in % (AMARE [3]; [23]): 100%
- Pre-emergence action against AMARE in % (AMARE [3]; [24]): 100%
- Pre-emergence action against AVEFA in % (AVEFA [4]): 90%
- Pre-emergence action against ECHCG in % (ECHCG [5]; 20 g/ha): 90%
- Pre-emergence action against ECHCG in % (ECHCG [5]; 80 g/ha): 100%
- Pre-emergence action against MATIN in % (MATIN [6]; dosage 20 g/ha): 90%
- Pre-emergence action against MATIN in % (MATIN [6]; dosage 80 g/ha): 100%
- Pre-emergence action against PHBPU in % (PHBPU [7]; dosage 80 g/ha): 80%
- Pre-emergence action against POLCO in % (POLCO): 90%
- Pre-emergence action against SETVI in % (SETVI [8]; dosage 20 g/ha): 80%
- Pre-emergence action against SETVI in % (SETVI [8]; dosage 80 g/ha): 100%
- Pre-emergence action against VERPE in % (VERPE [9]): 90%
- Pre-emergence action against VIOTR in % (VIOTR [10]; dosage 20 g/ha): 100%
- Pre-emergence action against VIOTR in % (VIOTR [10]; dosage 80 g/ha): 100%
- Pre-emergence action against DIGSA in % (DIGSA [11]; dosage 20 g/ha): 100%
- Pre-emergence action against DIGSA in % (DIGSA [11]; dosage 80 g/ha): 100%
- Post-emergence action against ABUTH in % (ABUTH [12]; dosage 5 g/ha): 90%
- Post-emergence action against ABUTH in % (ABUTH [12]; dosage 20 g/ha): 100%
- Post-emergence action against ALOMY in % (ALOMY [13]; dosage 20 g/ha): 90%
- Post-emergence action at 20 g/ha against AMARE in % (AMARE [14]): 100%
- Post-emergence action at 20 g/ha against AVEFA in % (AVEFA [15]): 80%
- Post-emergence action against ECHCG in % (ECHCG [16]; dosage 5 g/ha): 100%
- Post-emergence action against ECHCG in % (ECHCG [16]; dosage 20 g/ha): 100%
- Post-emergence action against MATIN in % (MATIN [17]; dosage 5 g/ha): 80%
- Post-emergence action against MATIN in % (MATIN [17]; dosage 20 g/ha): 90%
- Post-emergence action against PHBPU in % (PHBPU [18]; dosage 5 g/ha): 80%
- Post-emergence action against PHBPU in % (PHBPU [18]; dosage 20 g/ha): 90%
- Post-emergence action against SETVI in % (SETVI [19]; dosage 5 g/ha): 100%
- Post-emergence action against SETVI in % (SETVI [19]; dosage 20 g/ha): 100%
- Post-emergence action against VERPE in % (VERPE [20]): 90%
- Post-emergence action against VIOTR in % (VIOTR [21]; 5 g/ha): 90%
- Post-emergence action against VIOTR in % (VIOTR [21]; 20 g/ha): 100%
- Post-emergence action against DIGSA in % (DIGSA [22]): 90%
- Post-emergence action against DIGSA (DIGSA [22]): 100%

SMILES: CCn1nnnc1NC(=O)c1ccc(C(F)(F)F)c(C(=O)NCC(F)F)c1C1CC1 [Example 2-291]
- Pre-emergence action against ABUTH (herbicidal activity) (ABUTH [1]): 100%
- Pre-emergence action against ABUTH (herbicidal activity in percent) (ABUTH [1]): 100%
- Pre-emergence action against ALOMY (herbicidal activity) (ALOMY [2]): 80%
- Pre-emergence action against AMARE in % (AMARE [3]; [23]): 100%
- Pre-emergence action against AMARE in % (AMARE [3]; [24]): 100%
- Pre-emergence action against AVEFA (AVEFA [4]; 20 g/ha, scored visually after 3 weeks, 100% = plants have died, 0% = like control plants): 80%
- Pre-emergence action against AVEFA in % (AVEFA [4]): 80%
- Pre-emergence action against ECHCG in % (ECHCG [5]; 80 g/ha): 90%
- Pre-emergence action against MATIN in % (MATIN [6]; dosage 20 g/ha): 90%
- Pre-emergence action against MATIN in % (MATIN [6]; dosage 80 g/ha): 100%
- Pre-emergence action against PHBPU in % (PHBPU [7]; dosage 20 g/ha): 80%
- Pre-emergence action against PHBPU in % (PHBPU [7]; dosage 80 g/ha): 90%
- Pre-emergence action against POLCO in % (POLCO): 80%
- Pre-emergence action against SETVI in % (SETVI [8]; dosage 80 g/ha): 100%
- Pre-emergence action against VERPE in % (VERPE [9]): 90%
- Pre-emergence action against VIOTR in % (VIOTR [10]; dosage 20 g/ha): 100%
- Pre-emergence action against VIOTR in % (VIOTR [10]; dosage 80 g/ha): 100%
- Pre-emergence action against DIGSA in % (DIGSA [11]; dosage 20 g/ha): 100%
- Pre-emergence action against DIGSA in % (DIGSA [11]; dosage 80 g/ha): 100%
- Post-emergence action against ABUTH in % (ABUTH [12]; dosage 5 g/ha): 80%
- Post-emergence action against ABUTH in % (ABUTH [12]; dosage 20 g/ha): 80%
- Post-emergence action against ALOMY in % (ALOMY [13]; dosage 5 g/ha): 80%
- Post-emergence action against ALOMY in % (ALOMY [13]; dosage 20 g/ha): 80%
- Post-emergence action at 20 g/ha against AMARE in % (AMARE [14]): 90%
- Post-emergence action at 20 g/ha against AVEFA in % (AVEFA [15]): 90%
- Post-emergence action against ECHCG in % (ECHCG [16]; dosage 5 g/ha): 80%
- Post-emergence action against ECHCG in % (ECHCG [16]; dosage 20 g/ha): 80%
- Post-emergence action against MATIN in % (MATIN [17]; dosage 5 g/ha): 80%
- Post-emergence action against MATIN in % (MATIN [17]; dosage 20 g/ha): 90%
- Post-emergence action against PHBPU in % (PHBPU [18]; dosage 5 g/ha): 80%
- Post-emergence action against PHBPU in % (PHBPU [18]; dosage 20 g/ha): 90%
- Post-emergence action against SETVI in % (SETVI [19]; dosage 20 g/ha): 90%
- Post-emergence action against VERPE in % (VERPE [20]): 80%
- Post-emergence action against VIOTR in % (VIOTR [21]; 5 g/ha): 80%
- Post-emergence action against VIOTR in % (VIOTR [21]; 20 g/ha): 90%
- Post-emergence action against DIGSA in % (DIGSA [22]): 90%
- Post-emergence action against DIGSA (DIGSA [22]): 100%
